The test addresses hLPA1 (Homo sapiens, UniProt Q92633). Briefly: LPA1 functional antagonist assay (LPA-induced calcium flux in CHO cells overexpressing human LPA1). It counts as cell-based. Also noted: expressed in transfected cells; host or cells: Chinese hamster ovary (CHO) cells. The conditions noted are these: antagonist mode, inhibition of calcium flux induced by 10 nM LPA, read-out: hLPA1 IC50. Here is the method:
The effectiveness of compounds of the present invention as LPA1 inhibitors can be determined in an LPA1 functional antagonist assay as follows:
Chinese hamster ovary cells overexpressing human LPA1 were plated overnight (15,000 cells/well) in poly-D-lysine coated 384-well microplates (Greiner bio-one, Cat #781946) in DMEM/F12 medium (Gibco, Cat #11039). Following overnight culture, cells were loaded with calcium indicator dye (AAT Bioquest Inc, Cat #34601) for 30 minutes at 37° C. The cells were then equilibrated to room temperature for 30 minutes before the assay. Test compounds solubilized in DMSO were transferred to 384 well non-binding surface plates (Corning, Cat #3575) using the Labcyte Echo acoustic dispense and diluted with assay buffer [1×HBSS with calcium/magnesium (Gibco Cat #14025-092), 20 mM HEPES (Gibco Cat #15630-080) and 0.1% fatty acid free BSA (Sigma Cat #A9205)] to a final concentration of 0.5% DMSO. Diluted compounds were added to the cells by FDSS6000 (Hamamatsu) at final concentrations ranging from 0.08 nM to 5 μM. and were then incubated for 20 min at room temperature at which time LPA (Avanti Polar Lipids Cat #857130C) was added at final concentrations of 10 nM to stimulate the cells. The compound IC50 value was defined as the concentration of test compound which inhibited 50% of the calcium flux induced by LPA alone. IC50 values were determined by fitting data to a 4-parameter logistic equation (GraphPad Prism, San Diego Calif.).

Structures are written as SMILES.

hLPA1, sequence (Q92633 whole entry): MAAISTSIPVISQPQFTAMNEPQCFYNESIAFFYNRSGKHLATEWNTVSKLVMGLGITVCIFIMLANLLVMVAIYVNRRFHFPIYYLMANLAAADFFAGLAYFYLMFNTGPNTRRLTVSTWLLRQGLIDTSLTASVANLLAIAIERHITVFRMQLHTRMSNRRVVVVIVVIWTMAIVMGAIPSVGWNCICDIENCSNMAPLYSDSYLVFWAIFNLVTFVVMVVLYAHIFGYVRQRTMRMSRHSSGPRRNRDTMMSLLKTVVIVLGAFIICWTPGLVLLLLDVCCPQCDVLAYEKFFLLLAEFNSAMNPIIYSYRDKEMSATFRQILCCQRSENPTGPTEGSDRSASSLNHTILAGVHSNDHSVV

A word on the IC50: it is the concentration that gives 50% inhibition. Turning to `Cc1ccccc1[C@@H](C)OC(=O)Nc1c(C)noc1-c1ccc(C23CCC(CC(=O)O)(CC2)OC3)c(F)c1` [Example 17, 2-(4-(2-fluoro-4-(3-methyl-4-((((R)-1-(o-tolyl)ethoxy)carbonyl)amino)isoxazol-5-yl)phenyl)-2-oxabicyclo[2.2.2]octan-1-yl)acetic acid], the IC50 was determined as 0.119 µM.

Take `Cc1noc(-c2ccc(C34CCC(CC(=O)O)(CC3)OC4)c(F)c2)c1NC(=O)O[C@H](C)c1ccccc1Cl` [Example 18, 2-(4-(4-(4-((((R)-1-(2-chlorophenyl)ethoxy)carbonyl)amino)-3-methyl-isoxazol-5-yl)-2-fluorophenyl)-2-oxabicyclo[2.2.2]octan-1-yl)acetic acid]: the concentration for half-maximal inhibition (IC50) came to 0.056 µM.

Consider `Cc1noc(-c2ccc(C34CCC(CC(=O)O)(CC3)OC4)cc2F)c1NC(=O)O[C@H](C)C1CC1` [Example 20, 2-(4-(4-(4-((((R)-1-cyclopropylethoxy)carbonyl)amino)-3-methylisoxazol-5-yl)-3-fluorophenyl)-2-oxabicyclo[2.2.2]octan-1-yl)acetic acid], for which the IC50 was found to be 0.863 µM.

As for `Cc1noc(-c2ccc(C34CCC(CC(=O)O)(CC3)OC4)cc2F)c1NC(=O)O[C@H](C)c1ccccc1` [Example 21, 2-(4-(3-fluoro-4-(3-methyl-4-((((R)-1-phenylethoxy)carbonyl)amino)isoxazol-5-yl)phenyl)-2-oxabicyclo[2.2.2]octan-1-yl)acetic acid], the IC50 came to 0.095 µM.

Regarding `Cc1noc(-c2ccc(C34CCC(CC(=O)O)(CC3)OC4)cc2F)c1NC(=O)O[C@H](C)c1ccccc1Cl` [Example 22, 2-(4-(4-(4-((((R)-1-(2-chlorophenyl)ethoxy)carbonyl)amino)-3-methylisoxazol-5-yl)-3-fluorophenyl)-2-oxabicyclo[2.2.2]octan-1-yl)acetic acid], the IC50 worked out at 0.064 µM.

`Cc1ccccc1[C@@H](C)OC(=O)Nc1c(C)noc1-c1ccc(C23CCC(CC(=O)O)(CC2)OC3)cc1F` [Example 23, 2-(4-(3-fluoro-4-(3-methyl-4-((((R)-1-(o-tolyl)ethoxy)carbonyl)amino)isoxazol-5-yl)phenyl)-2-oxabicyclo[2.2.2]octan-1-yl)acetic acid]: the concentration for half-maximal inhibition (IC50) stood at 0.098 µM.

Consider `Cc1cc(C23CCC(CC(=O)O)(CC2)OC3)ccc1-c1onc(C)c1NC(=O)O[C@H](C)c1ccccc1Cl` [Example 27, 2-(4-(4-(4-((((R)-1-(2-chlorophenyl)ethoxy)carbonyl)amino)-3-methyl-isoxazol-5-yl)-3-methylphenyl)-2-oxabicyclo[2.2.2]octan-1-yl)acetic acid], for which the 50% inhibitory concentration (IC50) was found to be 0.185 µM.

In the case of `C[C@@H](OC(=O)Nc1c(-c2ccc(C34CCC(CC(=O)O)(CC3)OC4)cc2)cnn1C)c1ccccc1Cl` [Example 28, 2-(4-(4-(5-((((R)-1-(2-chlorophenyl)ethoxy)carbonyl)amino)-1-methyl-1H-pyrazol-4-yl)phenyl)-2-oxa-bicyclo[2.2.2]octan-1-yl)acetic acid], the IC50 turned out to be 0.164 µM.

Regarding `C[C@@H](OC(=O)Nc1c(-c2ccc(C34CCC(CC(=O)O)(CC3)OC4)c(F)c2)cnn1C)c1ccccc1` [Example 30, 2-(4-(2-fluoro-4-(1-methyl-5-((((R)-1-phenylethoxy)carbonyl)amino)-1H-pyrazol-4-yl)phenyl)-2-oxabicyclo[2.2.2]octan-1-yl)acetic acid], the IC50 was 0.365 µM.

With `C[C@@H](OC(=O)Nc1c(-c2ccc(C34CCC(CC(=O)O)(CC3)OC4)c(F)c2)cnn1C)c1ccccc1Cl` [Example 31, 2-(4-(4-(5-((((R)-1-(2-chlorophenyl)ethoxy)carbonyl)amino)-1-methyl-1H-pyrazol-4-yl)-2-fluorophenyl)-2-oxabicyclo[2.2.2]octan-1-yl)acetic acid], the IC50 is 0.112 µM.

Regarding `C[C@@H](OC(=O)Nc1c(-c2ccc(C34CCC(CC(=O)O)(CC3)OC4)cc2F)cnn1C)c1ccccc1Cl` [Example 32, 2-(4-(4-(5-((((R)-1-(2-chlorophenyl)ethoxy)carbonyl)amino)-1-methyl-1H-pyrazol-4-yl)-3-fluorophenyl)-2-oxabicyclo[2.2.2]octan-1-yl)acetic acid], the IC50 stood at 0.115 µM.

On to `Cc1cc(C23CCC(CC(=O)O)(CC2)OC3)ccc1-c1cnn(C)c1NC(=O)O[C@H](C)c1ccccc1Cl` [Example 33, 2-(4-(4-(5-((((R)-1-(2-chlorophenyl)ethoxy)carbonyl)amino)-1-methyl-1H-pyrazol-4-yl)-3-methylphenyl)-2-oxabicyclo[2.2.2]octan-1-yl)acetic acid], for which the concentration for half-maximal inhibition (IC50) is 0.537 µM.

Consider `Cn1ncc(-c2ccc(C34CCC(CC(=O)O)(CC3)OC4)cc2)c1COC(=O)N1CC[C@H](F)C1` [Example 38, 2-(4-(4-(5-((((S)-3-fluoropyrrolidine-1-carbonyl)oxy)methyl)-1-methyl-1H-pyrazol-4-yl)phenyl)-2-oxabicyclo[2.2.2]octan-1-yl)acetic acid], for which the IC50 amounted to 1.9 µM.

As for `CC(C)CCN(C)C(=O)OCc1c(-c2ccc(C34CCC(CC(=O)O)(CC3)OC4)cc2)cnn1C` [Example 39, 2-(4-(4-(5-(((isopentyl(methyl)carbamoyl)oxy)methyl)-1-methyl-1H-pyrazol-4-yl)phenyl)-2-oxabicyclo[2.2.2]octan-1-yl)acetic acid], the IC50 came out at 0.52 µM.

Turning to `CN(Cc1ccccc1)C(=O)OCc1c(-c2ccc(C34CCC(CC(=O)O)(CC3)OC4)cc2)cnn1C` [Example 40, 2-(4-(4-(5-(((benzyl(methyl)carbamoyl)oxy)methyl)-1-methyl-1H-pyrazol-4-yl)phenyl)-2-oxabicyclo[2.2.2]octan-1-yl)acetic acid], the IC50 was 0.767 µM.

In the case of `CN(CCc1ccc(Cl)cc1)C(=O)OCc1c(-c2ccc(C34CCC(CC(=O)O)(CC3)OC4)cc2)cnn1C` [Example 41, 2-(4-(4-(5-((((4-chlorophenethyl)(methyl)carbamoyl)oxy)methyl)-1-methyl-1H-pyrazol-4-yl)phenyl)-2-oxabicyclo[2.2.2]octan-1-yl)acetic acid], the half-inhibitory concentration (IC50) was determined as 2.79 µM.

As for `CN(C(=O)OCc1c(-c2ccc(C34CCC(CC(=O)O)(CC3)OC4)c(F)c2)cnn1C)C1CCCC1` [Example 42, 2-(4-(4-(5-(((cyclopentyl(methyl)carbamoyl)oxy)methyl)-1-methyl-1H-pyrazol-4-yl)-2-fluorophenyl)-2-oxabicyclo[2.2.2]octan-1-yl)acetic acid], the IC50 came to 0.232 µM.

Regarding `CC(C)CCN(C)C(=O)OCc1c(-c2ccc(C34CCC(CC(=O)O)(CC3)OC4)c(F)c2)cnn1C` [Example 43, 2-(4-(2-fluoro-4-(5-(((isopentyl(methyl)carbamoyl)oxy)methyl)-1-methyl-1H-pyrazol-4-yl)phenyl)-2-oxabicyclo[2.2.2]octan-1-yl)acetic acid], the IC50 stood at 0.271 µM.

On to `CN(C(=O)OCc1c(-c2ccc(C34CCC(CC(=O)O)(CC3)OC4)cc2F)cnn1C)C1CCCC1` [Example 44, 2-(4-(4-(5-(((cyclopentyl(methyl)carbamoyl)oxy)methyl)-1-methyl-1H-pyrazol-4-yl)-3-fluorophenyl)-2-oxabicyclo[2.2.2]octan-1-yl)acetic acid], for which the half-maximal inhibitory concentration (IC50) amounted to 1.86 µM.

In the case of `CC(C)CCN(C)C(=O)OCc1c(-c2ccc(C34CCC(CC(=O)O)(CC3)OC4)cc2F)cnn1C` [Example 45, 2-(4-(3-fluoro-4-(5-(((isopentyl(methyl)carbamoyl)oxy)methyl)-1-methyl-1H-pyrazol-4-yl)phenyl)-2-oxabicyclo[2.2.2]octan-1-yl)acetic acid], the IC50 amounted to 1.12 µM.

Regarding `Cc1noc(-c2ccc(C34CCC(CC(=O)O)(CC3)CO4)cc2)c1NC(=O)O[C@H](C)C1CC1` [Example 47, 2-(1-(4-(4-((((R)-1-cyclopropylethoxy)carbonyl)amino)-3-methylisoxazol-5-yl)phenyl)-2-oxabicyclo[2.2.2]octan-4-yl)acetic acid], the IC50 was 0.583 µM.

For the compound `Cc1noc(-c2ccc(C34CCC(CC(=O)O)(CC3)CO4)cc2)c1NC(=O)O[C@H](C)c1ccccc1Cl` [Example 48, 2-(1-(4-(4-((((R)-1-(2-chlorophenyl)ethoxy)carbonyl)amino)-3-methyl-isoxazol-5-yl)phenyl)-2-oxabicyclo[2.2.2]octan-4-yl)acetic acid], the IC50 is 0.354 µM.

Regarding `Cc1ccccc1[C@@H](C)OC(=O)Nc1c(C)noc1-c1ccc(C23CCC(CC(=O)O)(CC2)CO3)cc1` [Example 49, 2-(1-(4-(3-methyl-4-((((R)-1-(o-tolyl)ethoxy)carbonyl)amino)isoxazol-5-yl)phenyl)-2-oxabicyclo[2.2.2]octan-4-yl)acetic acid], the IC50 turned out to be 0.303 µM.

Consider `Cc1noc(-c2ccc(C34CCC(CC(=O)O)(CC3)CO4)c(F)c2)c1NC(=O)O[C@H](C)c1ccccc1` [Example 50, 2-(1-(2-fluoro-4-(3-methyl-4-((((R)-1-phenylethoxy)carbonyl)amino)isoxazol-5-yl)phenyl)-2-oxabicyclo[2.2.2]octan-4-yl)acetic acid], for which the IC50 is 0.057 µM.

As to `Cc1noc(-c2ccc(C34CCC(CC(=O)O)(CC3)CO4)c(F)c2)c1NC(=O)O[C@H](C)C1CC1` [Example 51, 2-(1-(4-(4-((((R)-1-cyclopropylethoxy)carbonyl)amino)-3-methylisoxazol-5-yl)-2-fluorophenyl)-2-oxabicyclo[2.2.2]octan-4-yl)acetic acid], the half-maximal inhibitory concentration (IC50) amounted to 0.222 µM.

(Values after patent US12428430B2 (BRISTOL-MYERS SQUIBB COMPANY, priority 2018, dated 2025).)
